One experiment concerns the target PI3Kα (Homo sapiens (Human), UniProt P42336). The experiment is described as follows: PI3Kα enzyme activity inhibition IC50 evaluation assay. The settings on record: ratio PI3Kα vs PI3Kδ. Type of experiment: biochemical. Here is the method: (§1) PI3Kα, PI3Kδ, PI3Kβ and PI3Kγ Enzyme Activity Inhibition IC50 Evaluation Assay
(§2) • 1. Buffer preparation: 50 mM HEPES, pH 7.5, 3 mM MgCl2, 1 mM EGTA, 100 mM NaCl, 0.03% CHAPS. • 2. Compound was formulated in 100% DMSO in a concentration gradient, and added to a 384-well plate to a final DMSO concentration of 1%. • 3. PI3Kα, PI3Kδ, PI3Kβ and PI3Kγ enzymes were diluted to an optimum concentration with the following buffer: 50 mM HEPES, pH 7.5, 3 mM MgCl2, 1 mM EGTA, 100 mM NaCl, 0.03% CHAPS, 2 mM DTT, and transferred to a 384-well plate and incubated with the compound for a certain time. • 4. Substrate was diluted to an optimum concentration with the following buffer: 50 mM HEPES, pH 7.5, 3 mM MgCl2, 1 mM EGTA, 100 mM NaCl, 0.03% CHAPS, 2 mM DTT, 50 μM PIP2, 25 μM ATP; then added to a 384-well plate to initiate the reaction, and for PI3Kα, PI3Kβ and PI3Kγ at room temperature reacted for 1 hr, for PI3Kδ at room temperature reacted for 2 hrs. For PI3Kβ and PI3Kγ, it was still necessary to further add 10 μL ADP-Glo Detection Reagent, and then equilibrated at room temperature for 30 minutes. • 5. Read Luminescense with FlexStation, and calculate the inhibition rate as the average of two tests.

A further experiment deals with Raji cells. The experiment is described as follows: Inhibition of TNF-α generation of human Raji cell induced by human IgM. The settings on record: 10 μg/ml IgM stimulation, 24 hrs, ELISA. The class given is cell-based. Here is the method:
Screening Test for a Drug on Inhibiting TNF-α Generation of Human Raji Cell Induced by Human IgM
• 1. Raji cell lines (source of human Burkitt's lymphoma) were employed. • 2. 1×10^5/well Raji cells were plated onto a 96-well cell culture plate. • 3. Compounds to be screened were diluted to the corresponding test concentrations and added into the cell culture system 30 minutes before IgM stimulation. • 4. 10 μg/ml IgM monoclonal antibody was added into the cell culture system to stimulate the cells generating TNF-α. • 5. 24 hrs later, the amount of TNF-α generated by the cell system was measured by ELISA method. • 6.
(In general: ELISA stands for enzyme-linked immunosorbent assay.)

Another experiment has as its target PI3Kδ (Homo sapiens (Human), UniProt O00329). The experiment is described as follows: PI3Kδ enzyme activity inhibition IC50 evaluation assay. The settings on record: luminescence, 25 μM ATP, 50 μM PIP2, 2 hrs room temperature. Type of experiment: biochemical. Here is the method: as §1
as §2, with “Substrate was diluted to an optimum concentration with the following buffer: 50 mM HEPES, pH 7.5, 3 mM MgCl2, 1 mM EGTA, 100 mM NaCl, 0.03% CHAPS, 2 mM DTT, 50 μM PIP2, 25 μM ATP; then added to a 384-well plate to initiate the reaction, and for PI3Kα, PI3Kβ and PI3Kγ at room temperature reacted for 1 hr, for PI3Kδ at room temperature reacted for 2 hrs.” left out

A word on the IC50: it is the concentration at which inhibition is half-maximal. Read a low IC50 as inhibition by little substance.

Molecules are shown by their SMILES.

PI3Kδ, sequence (O00329 whole entry): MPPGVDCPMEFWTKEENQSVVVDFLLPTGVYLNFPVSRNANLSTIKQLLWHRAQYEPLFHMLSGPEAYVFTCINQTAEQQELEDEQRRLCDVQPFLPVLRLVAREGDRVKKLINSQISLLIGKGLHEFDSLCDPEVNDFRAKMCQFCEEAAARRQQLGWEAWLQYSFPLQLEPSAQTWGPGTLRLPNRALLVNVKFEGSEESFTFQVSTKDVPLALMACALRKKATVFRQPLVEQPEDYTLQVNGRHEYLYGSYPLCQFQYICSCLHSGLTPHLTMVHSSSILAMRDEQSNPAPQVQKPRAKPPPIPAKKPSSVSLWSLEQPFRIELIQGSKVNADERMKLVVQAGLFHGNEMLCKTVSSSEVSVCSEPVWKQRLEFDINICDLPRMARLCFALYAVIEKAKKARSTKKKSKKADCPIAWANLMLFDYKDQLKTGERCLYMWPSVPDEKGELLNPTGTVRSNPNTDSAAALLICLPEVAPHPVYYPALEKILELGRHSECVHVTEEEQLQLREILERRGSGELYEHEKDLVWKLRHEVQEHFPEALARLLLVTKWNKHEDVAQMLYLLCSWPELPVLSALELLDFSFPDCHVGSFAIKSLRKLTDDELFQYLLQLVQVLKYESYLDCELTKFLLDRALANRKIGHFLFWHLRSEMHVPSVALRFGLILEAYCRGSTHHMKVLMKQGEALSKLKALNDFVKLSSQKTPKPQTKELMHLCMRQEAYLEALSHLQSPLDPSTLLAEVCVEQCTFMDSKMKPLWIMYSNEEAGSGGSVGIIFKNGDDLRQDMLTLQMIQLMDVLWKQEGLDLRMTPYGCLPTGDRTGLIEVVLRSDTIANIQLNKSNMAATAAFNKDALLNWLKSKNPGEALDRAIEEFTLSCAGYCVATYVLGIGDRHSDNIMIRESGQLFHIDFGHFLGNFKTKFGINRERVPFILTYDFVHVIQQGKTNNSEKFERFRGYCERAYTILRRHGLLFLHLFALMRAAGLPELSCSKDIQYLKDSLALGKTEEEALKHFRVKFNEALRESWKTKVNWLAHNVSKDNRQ
PI3Kδ, sequence (P27986 whole entry partner): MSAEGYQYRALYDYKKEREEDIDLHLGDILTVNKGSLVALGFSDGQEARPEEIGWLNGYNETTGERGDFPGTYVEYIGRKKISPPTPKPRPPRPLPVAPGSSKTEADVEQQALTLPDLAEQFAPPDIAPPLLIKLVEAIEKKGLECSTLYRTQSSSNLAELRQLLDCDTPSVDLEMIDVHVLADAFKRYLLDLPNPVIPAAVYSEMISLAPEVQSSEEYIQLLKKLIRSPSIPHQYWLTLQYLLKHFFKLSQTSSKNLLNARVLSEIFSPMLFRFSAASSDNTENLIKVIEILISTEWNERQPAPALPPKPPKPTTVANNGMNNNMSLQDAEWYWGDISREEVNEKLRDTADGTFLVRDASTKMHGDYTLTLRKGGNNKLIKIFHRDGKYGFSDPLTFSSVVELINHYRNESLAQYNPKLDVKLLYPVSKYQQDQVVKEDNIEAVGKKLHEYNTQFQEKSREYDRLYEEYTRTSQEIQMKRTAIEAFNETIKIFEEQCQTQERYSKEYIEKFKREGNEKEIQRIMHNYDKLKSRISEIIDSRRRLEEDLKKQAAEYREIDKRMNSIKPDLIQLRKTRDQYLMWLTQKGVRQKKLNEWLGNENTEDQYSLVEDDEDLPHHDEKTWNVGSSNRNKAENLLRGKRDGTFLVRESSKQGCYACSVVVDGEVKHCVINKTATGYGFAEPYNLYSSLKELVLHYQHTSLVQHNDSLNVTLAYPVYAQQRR
PI3Kα, sequence (P42336 whole entry): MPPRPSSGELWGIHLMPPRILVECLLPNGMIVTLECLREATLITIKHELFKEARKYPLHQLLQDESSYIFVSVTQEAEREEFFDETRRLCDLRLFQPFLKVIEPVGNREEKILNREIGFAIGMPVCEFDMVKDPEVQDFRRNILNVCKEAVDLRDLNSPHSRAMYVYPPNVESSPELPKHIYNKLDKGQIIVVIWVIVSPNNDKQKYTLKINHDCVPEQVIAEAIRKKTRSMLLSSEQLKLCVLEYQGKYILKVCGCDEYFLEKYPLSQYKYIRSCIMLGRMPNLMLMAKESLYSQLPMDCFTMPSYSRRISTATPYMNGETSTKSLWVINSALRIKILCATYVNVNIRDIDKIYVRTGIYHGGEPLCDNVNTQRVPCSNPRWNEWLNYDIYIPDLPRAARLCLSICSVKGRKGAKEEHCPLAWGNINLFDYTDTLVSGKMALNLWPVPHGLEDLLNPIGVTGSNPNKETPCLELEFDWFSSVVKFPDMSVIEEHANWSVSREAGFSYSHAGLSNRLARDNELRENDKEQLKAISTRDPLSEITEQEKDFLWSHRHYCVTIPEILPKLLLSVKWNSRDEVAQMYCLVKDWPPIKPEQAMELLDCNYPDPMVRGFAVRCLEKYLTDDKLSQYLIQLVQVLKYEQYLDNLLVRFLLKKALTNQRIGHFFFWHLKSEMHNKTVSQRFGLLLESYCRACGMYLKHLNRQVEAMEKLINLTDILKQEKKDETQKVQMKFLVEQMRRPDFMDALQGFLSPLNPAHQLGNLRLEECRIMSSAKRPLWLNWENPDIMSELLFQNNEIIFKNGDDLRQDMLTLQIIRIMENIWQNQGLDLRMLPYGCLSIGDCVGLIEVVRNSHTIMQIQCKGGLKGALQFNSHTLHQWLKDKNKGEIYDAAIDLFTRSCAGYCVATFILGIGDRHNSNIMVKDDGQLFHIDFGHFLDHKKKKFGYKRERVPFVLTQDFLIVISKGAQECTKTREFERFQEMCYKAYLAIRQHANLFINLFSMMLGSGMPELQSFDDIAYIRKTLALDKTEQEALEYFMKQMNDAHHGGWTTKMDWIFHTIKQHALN
PI3Kα, sequence (P27986 whole entry partner): as the sequence (P27986 whole entry partner) above

As for `COc1ncc(-c2nc(N3CCOCC3)nc3c(CN4CCC(N5CCC[C@@H]5C)CC4)c(C)sc23)cc1NS(C)(=O)=O` [Compound 127], the α/δ selectivity on PI3Kα worked out at 38. Further, the IC50 was 1.5 nM in the experiment on Raji cells and 5.8 nM at PI3Kδ.
`CC(=O)N1CCN(Cc2csc3c(-c4cccc5[nH]ccc45)nc(N4CCOCC4)nc23)CC1` [Compound 14]: the α/δ selectivity on PI3Kα turned out to be 700. Besides, the results for the IC50 with Raji cells and against PI3Kδ were 25.6 nM and 3.8 nM, respectively.
Turning to `c1cc(-c2nc(N3CCOCC3)nc3c(CN4CCN(C5COC5)CC4)csc23)c2cc[nH]c2c1` [Compound 11], the α/δ selectivity on PI3Kα is above 588. Also, the IC50 in the experiment with Raji cells is 41.1 nM; against PI3Kδ, 17 nM.
As for `c1cc(-c2nc(N3CCOCC3)nc3c(CN4CCN(C5CCOCC5)CC4)csc23)c2cc[nH]c2c1` [Compound 10], the α/δ selectivity on PI3Kα is on record as above 400. For the same compound, the IC50 is 28 nM in the experiment with Raji cells and 25 nM on PI3Kδ.
As for `CCOC1CCN(Cc2c(C)sc3c(-c4cnc(OC)c(NS(C)(=O)=O)c4)nc(N4CCOCC4)nc23)CC1` [Compound 103], at PI3Kα, the α/δ selectivity was determined as 176. For the same compound, the IC50 in the experiment with Raji cells is 9.3 nM; against PI3Kδ, 8.4 nM.
In the case of `COc1ncc(-c2nc(N3CCOCC3)nc3c(CN4CCN(C(C)C)CC4)c(C)sc23)cc1NS(C)(=O)=O` [Compound 91], the α/δ selectivity at PI3Kα was determined as 60. Further, the IC50 in the experiment with Raji cells was 3.4 nM; on PI3Kδ it was 3.2 nM.
For the compound `COc1ncc(-c2nc(N3CCOCC3)nc3c(CN4CCC(N5CCC[C@H]5CO)CC4)c(C)sc23)cc1NS(C)(=O)=O` [Compound 126], the α/δ selectivity at PI3Kα is 170. Further, the IC50 was 3.9 nM in the experiment on Raji cells and 4.7 nM against PI3Kδ.
As to `COc1ncc(-c2nc(N3CCOCC3)nc3c(CN4CCN(C(=O)C(F)(F)F)CC4)c(C)sc23)cc1NS(=O)(=O)C1CC1` [Compound 82], the α/δ selectivity at PI3Kα is reported as 143. For the same compound, the IC50 turned out to be 76.8 nM in the experiment on Raji cells and 15 nM at PI3Kδ.
`CC[C@H](Nc1ncnc2[nH]cnc12)c1nc2cccc(F)c2c(=O)n1-c1ccccc1` [CAL-101, idelalisib, reference compound] registered an IC50 with Raji cells (Homo sapiens) of 29.8 nM. That is a double-digit nanomolar value.
As to `COc1ncc(-c2nc(N3CCOCC3)nc3c(CN4CCN(C(=O)C(F)(F)F)CC4)c(C)sc23)cc1NS(C)(=O)=O` [Compound 90], the α/δ selectivity on PI3Kα is 69. The IC50 in the experiment on Raji cells was 31.2 nM; against PI3Kδ, 4.9 nM.
As to `COc1ncc(-c2nc(N3CCOCC3)nc3c(CN4CCC(C(C)(C)O)CC4)c(C)sc23)cc1NS(C)(=O)=O` [Compound 60], the α/δ selectivity at PI3Kα is 147. Moreover, the IC50 was 2 nM with Raji cells and 7.1 nM on PI3Kδ.
As to `COc1ncc(-c2nc(N3CCOCC3)nc3c(CN4CCN(C(=O)CO)CC4)c(C)sc23)cc1NS(C)(=O)=O` [Compound 71], on PI3Kα, the α/δ selectivity is reported as 13. In addition, the IC50 in the experiment with Raji cells stood at 8.6 nM; on PI3Kδ, 6.8 nM.
In the case of `COc1ncc(-c2nc(N3CCOCC3)nc3c(CN4CCN(C(=O)[C@@H](C)O)CC4)c(C)sc23)cc1NS(C)(=O)=O` [Compound 73], the α/δ selectivity at PI3Kα amounted to 18. This compound also gave a half-inhibitory concentration (IC50) at PI3Kδ of 4.4 nM.
Consider `COc1ncc(-c2nc(N3CCOCC3)nc3c(CN4CCN(C5CC(C)OC(C)C5)CC4)csc23)cc1NS(C)(=O)=O` (centres unmarked) [Compound 77], for which, on PI3Kα, the α/δ selectivity is 52. In addition, the IC50 against PI3Kδ turned out to be 7.1 nM.
Taken in the same sequence, the figures for `COc1ncc(-c2nc(N3CCOCC3)nc3c(CN4CCC(C(C)(C)O)CC4)csc23)cc1NS(=O)(=O)C1CC1` [Compound 50] were 359 and 13 nM.
On to `COc1ncc(-c2nc(N3CCOCC3)nc3c(CN4C[C@@H](C)O[C@@H](C)C4)csc23)cc1NS(C)(=O)=O` [Compound 27], for which the α/δ selectivity on PI3Kα worked out at 10. The same compound returned an IC50 against PI3Kδ of 99 nM.
For `COc1ncc(-c2nc(N3CCOCC3)nc3c(CN4CCC(C(C)(C)O)CC4)c(C)sc23)cc1NS(=O)(=O)C(F)(F)F` [Compound 118], the α/δ selectivity at PI3Kα is 92. The compound also had an IC50 on PI3Kδ of 2.6 nM.
In the case of `COc1ncc(-c2nc(N3CCOCC3)nc3c(CN4CCC(N5C[C@@H](C)O[C@@H](C)C5)CC4)csc23)cc1NS(C)(=O)=O` [Compound 55], the α/δ selectivity on PI3Kα is listed as 224. On PI3Kδ, this compound registered an IC50 of 5.6 nM.
Taken in the same sequence, the figures for `CCS(=O)(=O)Nc1cc(-c2nc(N3CCOCC3)nc3c(CN4CCN(C)CC4)csc23)cnc1OC` [Compound 70] were 87 and 23 nM.
Consider `COc1ncc(-c2nc(N3CCOCC3)nc3c(CN4CCC(OC(C)C)CC4)c(C)sc23)cc1NS(C)(=O)=O` [Compound 145], for which the α/δ selectivity at PI3Kα was 287. Also, on PI3Kδ, half-maximal inhibition (IC50) required 3.8 nM.
Taken in the same sequence, the figures for `COc1ncc(-c2nc(N3CCOCC3)nc3c(CN4CC[C@@H](N5CCC[C@H]5C)C4)c(C)sc23)cc1NS(C)(=O)=O` [Compound 133] were 185 and 7.7 nM.
In the case of `COc1ncc(-c2nc(N3CCOCC3)nc3c(CN4CCN(CC(C)(C)O)CC4)c(C)sc23)cc1NS(C)(=O)=O` [Compound 142], the α/δ selectivity at PI3Kα is listed as 60. Also, the midpoint of inhibition on PI3Kδ, the IC50, lay at 3.7 nM.
For the compound `COc1ncc(-c2nc(N3CCOCC3)nc3c(CN4CCN(C(=O)C(C)(C)C)CC4)csc23)cc1NS(C)(=O)=O` [Compound 46], the α/δ selectivity at PI3Kα was determined as 23. The same compound displayed an IC50 on PI3Kδ of 6.1 nM.
Take `COc1ncc(-c2nc(N3CCOCC3)nc3c(CN4CCC(S(C)(=O)=O)CC4)c(C)sc23)cc1NS(C)(=O)=O` [Compound 139]: on PI3Kα, the α/δ selectivity was 69. Besides, on PI3Kδ, the IC50 was determined as 3.2 nM.
Regarding `COc1ncc(-c2nc(N3CCOCC3)nc3c(CN4CCn5ccnc5C4)c(C)sc23)cc1NS(C)(=O)=O` [Compound 144], the α/δ selectivity at PI3Kα is on record as 56. The compound further gave an IC50 on PI3Kδ of 3.4 nM.
On to `COc1ncc(-c2nc(N3CCOCC3)nc3c(CN4CCN(C(=O)C(C)C)CC4)csc23)cc1NS(C)(=O)=O` [Compound 47], for which, at PI3Kα, the α/δ selectivity is 9. In addition, the IC50 at PI3Kδ came out at 3.5 nM.
Turning to `COc1ncc(-c2nc(N3CCOCC3)nc3c(CN4CCC(N5CCC(F)CC5)CC4)c(C)sc23)cc1NS(C)(=O)=O` [Compound 128], on PI3Kα, the α/δ selectivity was found to be 223. In addition, half-maximal inhibition on PI3Kδ (IC50) required 6 nM.
Take `Cc1nn(C)c(C)c1-c1nc(N2CCOCC2)nc2c(CN3CCN(C(=O)C(C)C)CC3)csc12` [Compound 21]: the α/δ selectivity on PI3Kα was 19. On PI3Kδ, this compound came in with a half-maximal inhibitory concentration (IC50) of 150 nM.
For the compound `COc1ncc(-c2nc(N3CCOCC3)nc3c(CN4CC[C@H](N5CCCC5)C4)c(C)sc23)cc1NS(C)(=O)=O` [Compound 129], the α/δ selectivity at PI3Kα was found to be 100. The compound further registered an IC50 against PI3Kδ of 19 nM.
Consider `C=C1CCN(Cc2c(C)sc3c(-c4cnc(OC)c(NS(C)(=O)=O)c4)nc(N4CCOCC4)nc23)CC1` [Compound 136], for which, at PI3Kα, the α/δ selectivity was 268. Moreover, 7.8 nM corresponded to half-maximal inhibition against PI3Kδ (IC50).
For `COc1ncc(-c2nc(N3CCOCC3)nc3c(CN4CC[C@@H](N5CCCC5)C4)c(C)sc23)cc1NS(C)(=O)=O` [Compound 130], in that order: 273 and 6.7 nM.
With `COc1ncc(-c2nc(N3CCOCC3)nc3c(CN4CCOCC4)c(C)sc23)cc1NS(C)(=O)=O` [Compound 98], on PI3Kα, the α/δ selectivity came to 30. On PI3Kδ, this compound displayed an IC50 of 12 nM.
Turning to `COc1ncc(-c2nc(N3CCOCC3)nc3c(CN4CCC(N5CC(F)(F)C5)CC4)c(C)sc23)cc1NS(C)(=O)=O` [Compound 146], the α/δ selectivity on PI3Kα is recorded as 120. In addition, at PI3Kδ, 2.9 nM corresponded to half-maximal inhibition (IC50).
For `Cc1cc2c(-c3nc(N4CCOCC4)nc4c(CN5CCC(C(C)(C)O)CC5)csc34)cccc2[nH]1` [Compound 6], in that order: above 69 and 145 nM.
For `COc1ncc(-c2nc(N3CCOCC3)nc3c(CN4CCC5(CC4)COC5)c(C)sc23)cc1NS(C)(=O)=O` [Compound 115], at PI3Kα, the α/δ selectivity was determined as 67. In addition, the IC50 against PI3Kδ turned out to be 13 nM.

The record behind these values is patent publication US9745321B2, “Fused pyrimidine compound, intermediate, preparation method therefor, and composition and application thereof” (SHANGHAI YINGLI PHARMACEUTICAL CO., LTD, priority 2013, dated 2017).
